Experimental data published in US5096693A, “Stable stannous chloride composition for labeling with radioactive technetium” (Nihon Medi-Physics Co., Ltd., priority 1984, dated 1992).

What was measured:
[1] = tested on: mice; assay: Acute toxicity with intravenous administration, mice; type: in vivo, ICR strain mice; details: 14 days
Procedure: (§1) In this Example, the acute toxicity with intravenous administration of the non-radioactive labeling composition to rats or mice was evaluated. Namely, sterilized, pyrogen-free and oxygen-free water (1.0 ml) was added to a vial containing "FDSn-RBC" to make a stannous chloride solution (20 μmol/ml, […]). The resultant solution was intravenously administered to male and female ICR strain mice and S.D. strain rats. After 14 days, the accumulative death percentage was determined, and the lethal dose 50 (LD50) was calculated by the Litchfield-Wilcoxon's method.

[2] = tested on: rats; assay: Acute toxicity with intravenous administration, rats; type: in vivo, S.D. strain rats; details: 14 days
Procedure: as §1
The dose of the non-radioactive labeling composition to human beings may be 9.48 μg/kg (with the assumption that a total amount of one vial of FDSn-COL is administered to a person of 60 kilograms in bodyweight) as stannous chloride at the maximum in case of using for preparation of ^99m Tc-labeled tin colloid, and 31.95 μg/kg (corresponding to 20 μg/kg of stannous ion) in case of using for labeling of red blood cells in a human body. When these doses are compared with the LD50 values of female rats which are considered to be the most sensitive among the tested animals, said dose is about 1/1790 that of the LD50 value in case of preparation of ^99m Tc-labeled tin colloid and about 1/530 that of the LD50 value in case of labeling of red blood cells in a human being.

[Cl][Sn][Cl] [stannous chloride]
LD50 ([1]; female mice): 28 ± 3 mg/kg
LD50 ([1]; male mice): 33 ± 3 mg/kg
LD50 ([2]; female rats): 17 ± 2 mg/kg
LD50 ([2]; male rats): 18 ± 3 mg/kg
